The values that follow come from US4289786A, “Farnesylacetic acid ester derivatives” (Kuraray Co., Ltd., priority 1978, dated 1981).

Each structure is given as a SMILES string.

In data set [1] the test system is indomethacin-induced ulcers on the gastric mucosa. In words: Indomethacin-induced ulcer (antiulcerogenic activity). Type of data set: in vivo, male Donryu rats. The conditions noted are these: Rattus norvegicus, 7 h; indomethacin 15 mg/kg s.c.; test compound 300 mg/kg oral, 10 minutes prior; hydrochlorides except one quaternary ammonium salt; read-out: Prevention ratio. The protocol: After fasting for 24 hours, male Donryu rats weighing 210 to 230 grams were administered subcutaneously with indomethacin suspended in 1% aqueous solution of carboxymethylcellulose at a dosage level of 15 mg/kg. Seven hours later, the animals were sacrificed by ether inhalation. The rat stomach was cut open and the indomethacin-induced ulcers appearing on the gastric mucosa were measured for their length in mm. The total length of ulcers per animal was designated as the ulcer index. The farnesylacetic acid ester derivatives (test compounds) prepared by any of the synthetic procedures described above and geranyl farnesylacetate as a control were orally administered 10 minutes prior to the indomethacin administration. The antiulcerogenic activity was evaluated in terms of the prevention ratio, i.e. the quotient of the difference in ulcer index between the test compound group and the control group divided by the ulcer index for the control group. The numbers in the test compound column are those previously assigned to the exemplary compounds of the present invention each represented by a structural formula, and the example numbers are the numbers of examples wherein preparation of the corresponding compounds is described. The test compounds were all hydrochlorides except for one quaternary ammonium salt.

Data set [2] has as its system stress ulcer on the gastric gland. As to the kind of experiment: Stress ulcer (water immersion restraint). The class given is in vivo, male Donryu rats. The following applies: 300 mg/kg oral, 10 minutes before immersion; 23° C. water, seven hours; hydrochlorides. The protocol:
Male Donryu rats weighing 240-260 grams were immobilized in wire cages (cf. Japanese Journal of Pharmacology, 18, 9-18 (1968)) and placed under stress by immersing them in water at 23° C. to the level of the breast. Seven hours later, the animals were taken up from the water tank and immediately sacrificed by blowing and the stomach was excised. The stomach was inflated with 1% formalin and then cut open and the ulcer on the gastric gland were measured for length in mm. The total ulcer length per animal was designated as the ulcer index. In the above-mentioned test, the compounds (hydrochlorides) (test compounds (1) and (4)) prepared by the procedure of Examples 1 and 2, respectively and geranyl farnesylacetate were administered orally to the rats 10 minutes before the immersion. In the Table, the prevention ratio has the same meaning as defined for the indomethacin-induced ulcer in Example 16.

Data set [3] can be described thus: Acute toxicity--1 (oral, rats). Type of data set: in vivo. The conditions noted are these: rat, in vivo, Wistar rats, observation 2 weeks, hydrochlorides. As to the method:
(§1) Wistar rats, five weeks of age, were fed previously for one week and then subjected to the test. All the test compounds were administered orally. The observation period was 2 weeks. The test compounds (4), (1) and (16) used were the products prepared in the above Examples 2, 1 and 8, respectively, and were all in the form of hydrochlorides.

The test system of data set [4] is Wistar rats. In words: Acute toxicity--1 (oral, rats). Type of data set: in vivo. The conditions noted are these: rats. As to the method: as §1
A short description of data set [5]: Acute toxicity--2 (oral, mice). Type of data set: in vivo. The following applies: mouse, in vivo, ddY mice, observation one week, hydrochlorides. As to the method:
(§2) Five-week-old ddY mice were fed previously for one week and then subjected to the test. All the test compounds were administered orally and the observation period was one week. The test compounds (23), (7) and (13) used were the products of the above Example 5, 10 and 4, respectively and were all in the form of hydrochlorides (the product of Example 10 was converted into the hydrochloride by a conventional method).

In data set [6] the test system is ddY mice. In words: Acute toxicity--2 (oral, mice). Type of data set: in vivo. The following applies: mice. The protocol:
as §2

Data set [7] can be described thus: Aqueous solution of hydrochloride. The class given is physicochemical. The conditions noted are these: in water. As to the method:
Using the lower alkyl esters of farnesylacetic acids shown in Table 1 and the amino alcohols also shown in Table 1, ester exchange reaction was carried out by the procedure of Example 1, to prepare a variety of amine-nitrogen-containing farnesylacetic acid esters and hydrochlorides thereof. In the chemical formula appearing in the table, P stands for a prenyl group, G a geranyl group and F a farnesyl group.

For data set [8], the system named is rats. The following applies: cited from earlier work.
Data set [9] relates to ulcers. The following applies: known compounds, prior art; cited from earlier work.
The test system of data set [10] is mice. The following applies: cited from earlier work.

In the case of `CCN(CC)CCOC(=O)CCC=C(C)CCC=C(C)CCC=C(C)C` [(1), 2-diethylaminoethyl farnesylacetate], the inhibition in vivo at 300 mg/kg in data set [1] is 64.1%. The Prevention ratio in data set [2] is listed as 42.1%. Also, the LD50 at 336 h in [3] is above 5400 mg/kg. The “Number of dead animals/number of animals used” value in data set [4] (dose 4.1 g/kg) and in data set [4] (dose 5.4 g/kg) was 0/5 each time.

`CC[N+](CC)(CC)CCOC(=O)CCC=C(C)CCC=C(C)CCC=C(C)C` [(2), farnesylacetoxyethyltriethylammonium bromide]: the inhibition in vivo at 300 mg/kg in [1] came to 68.8%.

For `CC(C)=CCCC(C)=CCCC(C)=CCCC(=O)OCCCN(C)C` [(4), 3-Dimethylaminopropyl farnesylacetate], the inhibition in vivo at 300 mg/kg in data set [1] stood at 65.8%. In addition, in data set [2], the Prevention ratio is recorded as 40.1%. The compound also showed an LD50 at 336 h in data set [3] above 4000 mg/kg. Also, the “Number of dead animals/number of animals used” value in [4] (dose 3 g/kg) and in data set [4] (dose 4 g/kg) was 0/5 each time.

As for `CC(C)=CCCC(C)=CCCC(C)=CCCC(=O)OC(C)(C)CN(C)C` [(7), 1,1-dimethyl-2-dimethylaminoethyl farnesylacetate], in data set [1], the inhibition in vivo at 300 mg/kg turned out to be 91.7%. The compound further returned a median lethal dose (LD50) at 168 h in data set [5] of 8400 mg/kg. The “Number of dead animals/number of animals used” value in data set [6] (dose 6 g/kg) is listed as 0/4; in data set [6] (dose 8 g/kg) it was 1/3; in data set [6] (dose 10 g/kg), 3/3.

As to `CC(C)=CCCC(C)=CCCC(C)=CCCC(=O)OCCN(CC=C(C)CCC=C(C)C)CC=C(C)CCC=C(C)C` [(13)], the inhibition in vivo at 300 mg/kg in data set [1] was 81.3%. For the same compound, the “Appearance of aqueous solution of hydrochloride (water solubility)” value in data set [7] is “Insoluble”. This compound also returned an LD50 at 168 h in data set [5] of 7000 mg/kg. Besides, the “Number of dead animals/number of animals used” value in data set [6] (dose 1 g/kg) was 0/3; in [6] (dose 2 g/kg), 1/3; in data set [6] (dose 6 g/kg), 2/3; in data set [6] (dose 10 g/kg), 2/3; in data set [6] (dose 20 g/kg) it was 3/3.

With `CCN(CCOC(=O)CCC=C(C)CCC=C(C)CCC=C(C)C)c1ccccc1` [(14)], the inhibition in vivo at 300 mg/kg in [1] stood at 70.2%. Besides, in data set [7], the “Appearance of aqueous solution of hydrochloride (water solubility)” value is listed as “Insoluble”.

As for `CC(C)=CCCC(C)=CCCC(C)=CCC(Cc1ccccc1)C(=O)OCCN(C)C` (stereo not shown) [(16)], the inhibition in vivo at 300 mg/kg in [1] is 84.5%. For the same compound, in data set [3], the LD50 at 336 h is above 15000 mg/kg. The “Number of dead animals/number of animals used” value in [4] (dose 5 g/kg) is reported as 0/5; in [4] (dose 10 g/kg), 1/5; in [4] (dose 15 g/kg), 1/5.

Consider `CC(C)=CCCC(C)=CCCC(C)=CCCC(=O)OCCN1CCN(CCO)CC1` [(23)], for which the inhibition in vivo at 300 mg/kg in [1] was 93.2%. In data set [5], this compound displayed a 50% lethal dose (LD50) at 168 h of 4000 mg/kg. In addition, the “Number of dead animals/number of animals used” value in data set [6] (dose 1.3 g/kg) is 0/3; in data set [6] (dose 4.0 g/kg) it was 2/4; in data set [6] (dose 6.6 g/kg) it was 3/3.

Turning to `CCN1CCC(OC(=O)CCC=C(C)CCC=C(C)CCC=C(C)C)CC1` [(24), N-ethyl-4-farnesylacetoxy-piperidine], the inhibition in vivo at 300 mg/kg in [1] amounted to 76.6%.

Regarding `CC(C)=CCCC(C)=CCCC(C)=CCCC(=O)OCC1CCCCN1C` (stereo not shown) [(26)], the inhibition in vivo at 300 mg/kg in data set [1] was 47.9%.

For `CC(C)=CCCC(C)=CCCC(C)=CCCC(=O)OCC=C(C)CCC=C(C)C` [Geranyl farnesylacetate, 3,7-dimethyl-2,6-octadienyl 5,9,13-trimethyl-4,8,12-tetradecatrienoate], the LD50 result in data set [8] and in [10] was “more than 8 g/kg” throughout. Moreover, the inhibition in vivo at 300 mg/kg in data set [1] was 6.1%. For the same compound, in data set [2], the Prevention ratio was 32.0%. The “antiulcer / antiulcerogenic activity (in words)” value in data set [9] is given as “high antiulcerogenic activity”.
